Where two headings read alike, the source gives them in different places.

Consider 13 molecules from patent US10287267B2, “Isoquinolin-3-yl carboxamides and preparation and use thereof” (Samumed, LLC, priority 2016, dated 2019).

One assay has as its system IL-6. In words: IL-6 inhibition in LPS-stimulated human peripheral blood mononuclear cells (HTRF).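 On all read-outs here: IL-6 detected by HTRF with an XL665- and Cryptate-labelled anti-IL-6 antibody pair, samples run in duplicate, EC50 obtained from a four-parameter Levenberg-Marquardt curve fit.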 Format: cell-based. As to conditions: Homo sapiens, PBMC; for inhibition at 10 µM: read-out: percent value in parentheses beside EC50 >10 μM; for EC50: Table 9, huPBMCs, LPS 50 ng/mL, 22 hours, dose-response starting from 10 μM.
The subject of assay [1] is α-smooth muscle actin (αSMA) positive LL29 cells. In words: Inhibition of fibrotic process: αSMA in TGF-β1 treated primary human fibroblasts from IPF patients.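 On all read-outs here: controls were TGF-β1 stimulated wells with DMSO vehicle (positive) and cells given DMSO alone (negative), cultured in F12 medium with 1% fetal bovine serum.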 Format: cell-based. As to conditions: Homo sapiens, Fibroblast; for EC50: 96 h, Table 8, LL29 fibroblasts from IPF patients, TGF-β1 20 ng/mL, 4 days, dose-response 10 μM to 0.94 nM; for inhibition at 10 µM: read-out: percent value in parentheses beside EC50 >10 μM.

Assay [2] deals with Tau phosphorylation at Ser396 (pSer396). Nature of the assay: Tau phosphorylation assay (pSer396 ELISA / western blot) in SH-SY5Y cells.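 Further: EC50 for reduction of Tau pSer396 in lysed cells, measured by colorimetric ELISA or chemiluminescent western blot, both using the same pSer396 antibody.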 Format: cell-based, human. As to conditions: Homo sapiens, read-out: pSer396 Tau EC50. Background: ELISA stands for enzyme-linked immunosorbent assay.
Assay [3] deals with SW480 colon carcinoma cells. In words: Cell viability assay (CellTiter-Glo). The settings on record: Homo sapiens; for EC50: 96 h, SW480 cells, CellTiter-Glo, four days incubation; for inhibition at 10 µM: SW480, read-out: percent inhibition at 10 μM. Format: cell-based, human. A general note: In ATP-based viability assays light output follows the ATP content of the culture.
Assay [4] has as its target recombinant DYRK1A kinase (Homo sapiens (Human), UniProt Q13627). In words: DYRK1A kinase assay (Ser/Thr 18 peptide Z-lyte FRET).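 Further: Read-out is the coumarin to fluorescein emission ratio, referenced to unphosphorylated (0%) and phosphorylated (100%) Ser/Thr 18 peptide controls, values from dose-response curves by non-linear regression.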 It is filed as biochemical. The settings on record: 30 μM ATP, 1 h room temperature.
In assay [5] the test system is Wnt pathway (Sp5-Luc reporter, TCF/LEF binding sites) in SW480 colon carcinoma cells. Nature of the assay: Screening assay for Wnt activity: Sp5-Luc reporter gene assay.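 On all read-outs here: firefly luciferase luminescence read in stably transduced SW480 cells carrying the Sp5 promoter reporter with eight TCF/LEF sites, compounds given in 0.1% DMSO final.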 It is filed as cell-based, human. The settings on record: Homo sapiens; for EC50: Sp5-Luc reporter, SW480 cells, 36 to 48 hours. On the technique in general: In a reporter assay the amount or activity of a reporter protein is the signal.
Procedure: The screening assay for Wnt activity is described as follows.
Following incubation, 15 μl of BriteLite Plus luminescence reagent (Perkin Elmer) was added to each well of the 384-well assay plates. The plates were placed on an orbital shaker for 2 min and then luminescence was quantified using the Envision (Perkin Elmer) plate reader.

The target in the next assay is recombinant GSK3β kinase (Homo sapiens (Human), UniProt P49841). Nature of the assay: GSK3β kinase assay (Ser/Thr 09 peptide Z-lyte FRET).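 Further: kinase activity read as coumarin to fluorescein emission ratio, 11-point threefold dilutions from 10 µM to 0.0003 µM in duplicate, unphosphorylated and phosphorylated peptide as 0% and 100% controls.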 Format: biochemical. As to conditions: 46 μM ATP, 1 h room temperature.
Chain of recombinant GSK3β kinase (P49841 whole entry): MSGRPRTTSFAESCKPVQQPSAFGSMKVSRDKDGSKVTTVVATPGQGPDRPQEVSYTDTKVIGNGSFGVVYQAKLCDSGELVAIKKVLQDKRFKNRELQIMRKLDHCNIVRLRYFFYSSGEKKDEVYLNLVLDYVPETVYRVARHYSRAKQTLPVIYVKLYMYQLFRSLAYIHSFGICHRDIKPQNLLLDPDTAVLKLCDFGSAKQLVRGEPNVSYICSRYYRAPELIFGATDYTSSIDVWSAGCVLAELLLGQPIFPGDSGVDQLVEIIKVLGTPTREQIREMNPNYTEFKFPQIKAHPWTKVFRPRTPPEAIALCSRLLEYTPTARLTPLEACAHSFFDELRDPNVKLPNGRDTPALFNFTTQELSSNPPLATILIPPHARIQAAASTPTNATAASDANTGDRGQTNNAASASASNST
Setting [6] is: SH-SY5Y cells, overnight (16-18 h) exposure.

Procedure for IL-6: After 22 hour incubation, a mixture of anti-IL6 XL665 and anti-IL-6 Cryptate diluted in reconstitution buffer (Catalog #62IL6PEC, Cisbio Inc., Bedford, Mass.) was added to each well. […] All samples were processed in duplicate. […] EC50 was determined using software generated by Dotmatics Limited (Windhill Bishops Stortford Herts, UK) using the Levenberg-Marquardt 4 parameter fitting procedure with finite different gradients.

On to `C[C@H]1COCCN1CC(=O)Nc1cc2cc(-c3cnn(C)c3)ccc2cn1` [Compound 341, (S)—N-(6-(1-Methyl-1H-pyrazol-4-yl)isoquinolin-3-yl)-2-(3-methylmorpholino)acetamide], for which the inhibition at 10 µM worked out at 46.1% in the assay with IL-6 and 33.9% in assay [3]. For the same molecule, the EC50 in the assay with IL-6 was above 10000 nM; in assay [1] it was 2370 nM; in assay [2] (setting [6]), 1600 nM; in assay [3] it was above 10000 nM; in assay [4], 5.6 nM; in assay [5] it was 4100 nM. Also, the EC50 on recombinant GSK3β kinase worked out at 89 nM.
For the molecule `C[C@@H]1COCCN1CC(=O)Nc1cc2cc(-c3cnn(C)c3)ccc2cn1` [Compound 342, (R)—N-(6-(1-Methyl-1H-pyrazol-4-yl)isoquinolin-3-yl)-2-(3-methylmorpholino)acetamide], the half-maximal effective concentration (EC50) in the assay with IL-6 was 4170 nM; in assay [1], 948 nM; in assay [2] (setting [6]), 3600 nM; in assay [3], above 10000 nM; in assay [4], 6.5 nM; in assay [5], 7220 nM. In addition, at recombinant GSK3β kinase, the EC50 came to 137 nM. In assay [3], the inhibition at 10 µM amounted to 40%.
Take `C[C@H]1CN(CC(=O)Nc2cc3cc(-c4cnn(C)c4)ccc3cn2)CCO1` [Compound 343, (S)—N-(6-(1-Methyl-1H-pyrazol-4-yl)isoquinolin-3-yl)-2-(2-methylmorpholino)acetamide]: in the assay on IL-6, the inhibition at 10 µM amounted to 47.4%. Moreover, the EC50 was above 10000 nM in the assay on IL-6; 446 nM in assay [1]; 2400 nM in assay [2] (setting [6]); 7890 nM in assay [3]; 9.9 nM in assay [4]; 3590 nM in assay [5]. Moreover, the EC50 on recombinant GSK3β kinase was found to be 71 nM.
In the case of `C[C@@H]1CN(CC(=O)Nc2cc3cc(-c4cnn(C)c4)ccc3cn2)C[C@H](C)O1` [Compound 344, 2-((2R,6S)-2,6-Dimethylmorpholino)-N-(6-(1-methyl-1H-pyrazol-4-yl)isoquinolin-3-yl)acetamide], the EC50 is 9130 nM in the assay on IL-6; above 10000 nM in assay [1]; 3500 nM in assay [2] (setting [6]); 7680 nM in assay [3]; 10.5 nM in assay [4]; 5470 nM in assay [5]. The EC50 at recombinant GSK3β kinase came to 175 nM. The inhibition at 10 µM in assay [1] worked out at 24.3%.
For the molecule `Cn1cc(-c2ccc3cnc(NC(=O)CN4C[C@@H]5C[C@H]4CO5)cc3c2)cn1` [Compound 345, 2-((1S,4S)-2-Oxa-5-azabicyclo[2.2.1]heptan-5-yl)-N-(6-(1-methyl-1H-pyrazol-4-yl)isoquinolin-3-yl)acetamide], the EC50 is 4170 nM in the assay on IL-6; above 10000 nM in assay [1]; 774 nM in assay [2] (setting [6]); 3080 nM in assay [3]; 4 nM in assay [4]; 2120 nM in assay [5]. Also, the EC50 at recombinant GSK3β kinase amounted to 26 nM. The inhibition at 10 µM in assay [1] was determined as 38%.
In the case of `Cn1cc(-c2ccc3cnc(NC(=O)CN4C[C@H]5C[C@@H]4CO5)cc3c2)cn1` [Compound 346, 2-((1R,4R)-2-Oxa-5-azabicyclo[2.2.1]heptan-5-yl)-N-(6-(1-methyl-1H-pyrazol-4-yl)isoquinolin-3-yl)acetamide], the EC50 was 9440 nM with IL-6; 965 nM in assay [1]; 1800 nM in assay [2] (setting [6]); 9660 nM in assay [3]; 9.9 nM in assay [4]; 4360 nM in assay [5]. In addition, at recombinant GSK3β kinase, the EC50 stood at 84 nM.
Consider `Cn1cc(-c2ccc3cnc(NC(=O)CN4C5CCC4COC5)cc3c2)cn1` [Compound 347, 2-(3-Oxa-8-azabicyclo[3.2.1]octan-8-yl)-N-(6-(1-methyl-1H-pyrazol-4-yl)isoquinolin-3-yl)acetamide], for which the inhibition at 10 µM in the assay with IL-6 worked out at 4.5%; in assay [3], 48.5%. In addition, the EC50 is above 10000 nM in the assay on IL-6; 5220 nM in assay [1]; 4400 nM in assay [2] (SH-SY5Y); above 10000 nM in assay [3]; 10.4 nM in assay [4]; 9440 nM in assay [5]. The EC50 on recombinant GSK3β kinase stood at 165 nM.
As to `C[C@@H](C(=O)Nc1cc2cc(-c3cnn(C)c3)ccc2cn1)N1CCOCC1` [Compound 348, (S)—N-(6-(1-Methyl-1H-pyrazol-4-yl)isoquinolin-3-yl)-2-morpholinopropanamide], the inhibition at 10 µM in the assay with IL-6 stood at 19%; in assay [3] it was 22.4%; in assay [5] (SW480, read-out: percent inhibition at 10 μM), 36.9%. The EC50 in the assay with IL-6 was above 10000 nM; in assay [1], 1460 nM; in assay [2] (setting [6]), 2000 nM; in assay [3], above 10000 nM; in assay [4] it was 77.5 nM; in assay [5] it was above 10000 nM. At recombinant GSK3β kinase, the EC50 came out at 221 nM.
Regarding `Cn1cc(-c2ccc3cnc(NC(=O)CC4CNCCO4)cc3c2)cn1` (stereo not drawn) [Compound 349, N-(6-(1-Methyl-1H-pyrazol-4-yl)isoquinolin-3-yl)-2-(morpholin-2-yl) acetamide], the EC50 was found to be 307 nM with IL-6; 145 nM in assay [1]; 351 nM in assay [2] (setting [6]); 704 nM in assay [3]; 6.5 nM in assay [4]; 712 nM in assay [5]. At recombinant GSK3β kinase, the half-maximal effective concentration (EC50) is 66 nM.
Consider `CN1CCOC(CC(=O)Nc2cc3cc(-c4cnn(C)c4)ccc3cn2)C1` (stereo not drawn) [Compound 350, N-(6-(1-Methyl-1H-pyrazol-4-yl)isoquinolin-3-yl)-2-(4-methylmorpholin-2-yl)acetamide], for which the EC50 in the assay on IL-6 is 578 nM; in assay [1] it was 100 nM; in assay [2] (setting [6]) it was 417 nM; in assay [3], 1080 nM; in assay [4], 6.2 nM; in assay [5], 1000 nM. On recombinant GSK3β kinase, the EC50 was found to be 33 nM.
In the case of `CCN1CCN(CC(=O)Nc2cc3cc(-c4cnn(C)c4)ccc3cn2)CC1` [Compound 351, 2-(4-Ethylpiperazin-1-yl)-N-(6-(1-methyl-1H-pyrazol-4-yl)isoquinolin-3-yl) acetamide], the EC50 in the assay on IL-6 was 3010 nM; in assay [1], above 10000 nM; in assay [2] (setting [6]) it was 846 nM; in assay [3], 6880 nM; in assay [4] it was 13.6 nM; in assay [5] it was 2520 nM. At recombinant GSK3β kinase, the EC50 amounted to 130 nM. Further, the inhibition at 10 µM in assay [1] amounted to 38.8%.
Take `CC(C)N1CCN(CC(=O)Nc2cc3cc(-c4cnn(C)c4)ccc3cn2)CC1` [Compound 352, 2-(4-Isopropylpiperazin-1-yl)-N-(6-(1-methyl-1H-pyrazol-4-yl)isoquinolin-3-yl)acetamide]: the EC50 amounted to 5030 nM in the assay with IL-6; 1320 nM in assay [1]; 1300 nM in assay [2] (setting [6]); 8600 nM in assay [3]; 21.5 nM in assay [4]; 2960 nM in assay [5]. For the same molecule, the EC50 at recombinant GSK3β kinase was 110 nM.
Take `Cn1cc(-c2ccc3cnc(NC(=O)CN4CCN(C5CC5)CC4)cc3c2)cn1` [Compound 353, 2-(4-Cyclopropylpiperazin-1-yl)-N-(6-(1-methyl-1H-pyrazol-4-yl)isoquinolin-3-yl)acetamide]: the inhibition at 10 µM in the assay with IL-6 was determined as 39.9%; in assay [1] it was 31.7%. The EC50 in the assay with IL-6 was above 10000 nM; in assay [1], above 10000 nM; in assay [2] (setting [6]), 724 nM; in assay [3] it was 8220 nM; in assay [4] it was 8.6 nM; in assay [5], 5710 nM. In addition, the EC50 on recombinant GSK3β kinase was found to be 29 nM.

Usually EC50 stands for the concentration giving half of the maximal effect.
